Measured values as given in ChEMBL document CHEMBL5053538, “Precursor-Directed Biosynthesis of Talaroenamine Derivatives Using a Yellow River Wetland-Derived Penicillium malacosphaerulum” (2021).
≈ marks a conversion by molar mass, not a printed value.

System: Pseudomonas
Test: Antimicrobial activity against Pseudomonas assessed as inhibition of bacterial growth incubated for 24 hrs by agar dilution method
Type: functional
Details: not given

Row | MIC [µg/mL] | Compound
1 | > 10 | CC1=CC(=O)[C@@](C)(O)C(=O)/C1=C\Nc1ccc(F)c([N+](=O)[O-])c1
2 | > 10 | CC1=CC(=O)[C@@](C)(O)C(=O)/C1=C\Nc1ccc(Br)cc1F
3 | > 10 | CC1=CC(=O)[C@@](C)(O)C(=O)/C1=C\Nc1cccc(OC(F)(F)F)c1
4 | > 10 | CC1=CC(=O)[C@@](C)(O)C(=O)/C1=C\Nc1ccccc1
5 | 7.76 (≈ 24.9 µM) | CC1=CC(=O)[C@@](C)(O)C(=O)/C1=C\Nc1cc(F)c(F)c(F)c1
6 | > 10 | CC1=CC(=O)[C@@](C)(O)C(=O)/C1=C\Nc1ccc(Br)cc1
7 | > 10 | CC1=CC(=O)[C@@](C)(O)C(=O)/C1=C\Nc1ccc(C)cc1
8 | 1.04 (≈ 3.14 µM) | O=C(O)c1cn(C2CC2)c2cc(N3CCNCC3)c(F)cc2c1=O [CIPROFLOXACIN]

System: Escherichia coli
Test: Antimicrobial activity against Escherichia coli assessed as inhibition of bacterial growth incubated for 24 hrs by agar dilution method
Type: functional
Details: not given

Row | MIC [µg/mL] | Compound
9 | > 10 | CC1=CC(=O)[C@@](C)(O)C(=O)/C1=C\Nc1ccc(F)c([N+](=O)[O-])c1
10 | 8.83 (≈ 24.9 µM) | CC1=CC(=O)[C@@](C)(O)C(=O)/C1=C\Nc1ccc(Br)cc1F
11 | 4.26 (≈ 12.5 µM) | CC1=CC(=O)[C@@](C)(O)C(=O)/C1=C\Nc1cccc(OC(F)(F)F)c1
12 | > 10 | CC1=CC(=O)[C@@](C)(O)C(=O)/C1=C\Nc1ccccc1
13 | > 10 | CC1=CC(=O)[C@@](C)(O)C(=O)/C1=C\Nc1cc(F)c(F)c(F)c1
14 | > 10 | CC1=CC(=O)[C@@](C)(O)C(=O)/C1=C\Nc1ccc(Br)cc1
15 | 6.78 (≈ 25 µM) | CC1=CC(=O)[C@@](C)(O)C(=O)/C1=C\Nc1ccc(C)cc1

System: Proteus sp.
Test: Antimicrobial activity against Proteus sp. assessed as inhibition of bacterial growth incubated for 24 hrs by agar dilution method
Type: functional
Details: Proteus sp. (in: enterobacteria)

Row | MIC [µg/mL] | Compound
16 | > 10 | CC1=CC(=O)[C@@](C)(O)C(=O)/C1=C\Nc1ccc(F)c([N+](=O)[O-])c1
17 | > 10 | CC1=CC(=O)[C@@](C)(O)C(=O)/C1=C\Nc1ccc(Br)cc1F
18 | 2.13 (≈ 6.24 µM) | CC1=CC(=O)[C@@](C)(O)C(=O)/C1=C\Nc1cccc(OC(F)(F)F)c1
19 | > 10 | CC1=CC(=O)[C@@](C)(O)C(=O)/C1=C\Nc1ccccc1
20 | > 10 | CC1=CC(=O)[C@@](C)(O)C(=O)/C1=C\Nc1cc(F)c(F)c(F)c1
21 | > 10 | CC1=CC(=O)[C@@](C)(O)C(=O)/C1=C\Nc1ccc(Br)cc1
22 | 6.78 (≈ 25 µM) | CC1=CC(=O)[C@@](C)(O)C(=O)/C1=C\Nc1ccc(C)cc1
23 | 0.06 (≈ 0.181 µM) | O=C(O)c1cn(C2CC2)c2cc(N3CCNCC3)c(F)cc2c1=O [CIPROFLOXACIN]

System: Bacillus cereus
Test: Antimicrobial activity against Bacillus cereus assessed as inhibition of bacterial growth incubated for 24 hrs by agar dilution method
Type: functional
Details: not given

Row | MIC [µg/mL] | Compound
24 | > 10 | CC1=CC(=O)[C@@](C)(O)C(=O)/C1=C\Nc1ccc(F)c([N+](=O)[O-])c1
25 | > 10 | CC1=CC(=O)[C@@](C)(O)C(=O)/C1=C\Nc1ccc(Br)cc1F
26 | 2.13 (≈ 6.24 µM) | CC1=CC(=O)[C@@](C)(O)C(=O)/C1=C\Nc1cccc(OC(F)(F)F)c1
27 | > 10 | CC1=CC(=O)[C@@](C)(O)C(=O)/C1=C\Nc1ccccc1
28 | > 10 | CC1=CC(=O)[C@@](C)(O)C(=O)/C1=C\Nc1cc(F)c(F)c(F)c1
29 | > 10 | CC1=CC(=O)[C@@](C)(O)C(=O)/C1=C\Nc1ccc(Br)cc1
30 | 0.85 (≈ 3.13 µM) | CC1=CC(=O)[C@@](C)(O)C(=O)/C1=C\Nc1ccc(C)cc1
31 | 0.26 (≈ 0.785 µM) | O=C(O)c1cn(C2CC2)c2cc(N3CCNCC3)c(F)cc2c1=O [CIPROFLOXACIN]

System: Bacillus subtilis
Test: Antimicrobial activity against Bacillus subtilis assessed as inhibition of bacterial growth incubated for 24 hrs by agar dilution method
Type: functional
Details: not given

Row | MIC [µg/mL] | Compound
32 | > 10 | CC1=CC(=O)[C@@](C)(O)C(=O)/C1=C\Nc1ccc(F)c([N+](=O)[O-])c1
33 | > 10 | CC1=CC(=O)[C@@](C)(O)C(=O)/C1=C\Nc1ccc(Br)cc1F
34 | 2.13 (≈ 6.24 µM) | CC1=CC(=O)[C@@](C)(O)C(=O)/C1=C\Nc1cccc(OC(F)(F)F)c1
35 | > 10 | CC1=CC(=O)[C@@](C)(O)C(=O)/C1=C\Nc1ccccc1
36 | > 10 | CC1=CC(=O)[C@@](C)(O)C(=O)/C1=C\Nc1cc(F)c(F)c(F)c1
37 | > 10 | CC1=CC(=O)[C@@](C)(O)C(=O)/C1=C\Nc1ccc(Br)cc1
38 | 6.78 (≈ 25 µM) | CC1=CC(=O)[C@@](C)(O)C(=O)/C1=C\Nc1ccc(C)cc1
39 | 0.06 (≈ 0.181 µM) | O=C(O)c1cn(C2CC2)c2cc(N3CCNCC3)c(F)cc2c1=O [CIPROFLOXACIN]

System: Mycolicibacterium phlei
Test: Antimicrobial activity against Mycobacterium phlei assessed as inhibition of bacterial growth incubated for 24 hrs by agar dilution method
Type: functional
Details: not given

Row | MIC [µg/mL] | Compound
40 | > 10 | CC1=CC(=O)[C@@](C)(O)C(=O)/C1=C\Nc1ccc(F)c([N+](=O)[O-])c1
41 | > 10 | CC1=CC(=O)[C@@](C)(O)C(=O)/C1=C\Nc1ccc(Br)cc1F
42 | > 10 | CC1=CC(=O)[C@@](C)(O)C(=O)/C1=C\Nc1cccc(OC(F)(F)F)c1
43 | > 10 | CC1=CC(=O)[C@@](C)(O)C(=O)/C1=C\Nc1ccccc1
44 | > 10 | CC1=CC(=O)[C@@](C)(O)C(=O)/C1=C\Nc1cc(F)c(F)c(F)c1
45 | > 10 | CC1=CC(=O)[C@@](C)(O)C(=O)/C1=C\Nc1ccc(Br)cc1
46 | > 10 | CC1=CC(=O)[C@@](C)(O)C(=O)/C1=C\Nc1ccc(C)cc1
47 | 0.26 (≈ 0.785 µM) | O=C(O)c1cn(C2CC2)c2cc(N3CCNCC3)c(F)cc2c1=O [CIPROFLOXACIN]

System: Edwardsiella tarda
Test: Antimicrobial activity against Edwardsiella tarda assessed as inhibition of bacterial growth incubated for 24 hrs by agar dilution method
Type: functional
Details: not given

Row | MIC [µg/mL] | Compound
48 | > 10 | CC1=CC(=O)[C@@](C)(O)C(=O)/C1=C\Nc1ccc(F)c([N+](=O)[O-])c1
49 | > 10 | CC1=CC(=O)[C@@](C)(O)C(=O)/C1=C\Nc1ccc(Br)cc1F
50 | > 10 | CC1=CC(=O)[C@@](C)(O)C(=O)/C1=C\Nc1cccc(OC(F)(F)F)c1
51 | > 10 | CC1=CC(=O)[C@@](C)(O)C(=O)/C1=C\Nc1ccccc1
52 | > 10 | CC1=CC(=O)[C@@](C)(O)C(=O)/C1=C\Nc1cc(F)c(F)c(F)c1
53 | > 10 | CC1=CC(=O)[C@@](C)(O)C(=O)/C1=C\Nc1ccc(Br)cc1
54 | > 10 | CC1=CC(=O)[C@@](C)(O)C(=O)/C1=C\Nc1ccc(C)cc1
55 | 0.02 (≈ 0.0604 µM) | O=C(O)c1cn(C2CC2)c2cc(N3CCNCC3)c(F)cc2c1=O [CIPROFLOXACIN]

System: Acinetobacter baumannii
Test: Antimicrobial activity against Acinetobacter baumannii assessed as inhibition of bacterial growth incubated for 24 hrs by agar dilution method
Type: functional
Details: not given

Row | MIC [µg/mL] | Compound
56 | > 10 | CC1=CC(=O)[C@@](C)(O)C(=O)/C1=C\Nc1ccc(F)c([N+](=O)[O-])c1
57 | > 10 | CC1=CC(=O)[C@@](C)(O)C(=O)/C1=C\Nc1ccc(Br)cc1F
58 | > 10 | CC1=CC(=O)[C@@](C)(O)C(=O)/C1=C\Nc1cccc(OC(F)(F)F)c1
59 | > 10 | CC1=CC(=O)[C@@](C)(O)C(=O)/C1=C\Nc1ccccc1
60 | > 10 | CC1=CC(=O)[C@@](C)(O)C(=O)/C1=C\Nc1cc(F)c(F)c(F)c1
61 | > 10 | CC1=CC(=O)[C@@](C)(O)C(=O)/C1=C\Nc1ccc(Br)cc1
62 | > 10 | CC1=CC(=O)[C@@](C)(O)C(=O)/C1=C\Nc1ccc(C)cc1
63 | 2.07 (≈ 6.25 µM) | O=C(O)c1cn(C2CC2)c2cc(N3CCNCC3)c(F)cc2c1=O [CIPROFLOXACIN]
